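Tested at 5 concentrations; 48 h exposure; 96-well plates; endpoints linearly interpolated, else capped at highest concentration. TGI marks complete inhibition of growth.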
Legend:
Assay in all cases: growth of human tumour cells (NCI), 48 h
786-0 renal = test system: 786-0 renal
COLO 205 colon = test system: COLO 205 colon
DU-145 prostate = test system: DU-145 prostate
HL-60(TB) leukemia = test system: HL-60(TB) leukemia
IGROV1 ovarian = test system: IGROV1 ovarian
MALME-3M melanoma = test system: MALME-3M melanoma
MCF7 breast = test system: MCF7 breast
MDA-MB-435 = test system: MDA-MB-435
NCI-H23 lung = test system: NCI-H23 lung
NCI-H522 lung = test system: NCI-H522 lung
OVCAR-3 ovarian = test system: OVCAR-3 ovarian
OVCAR-4 ovarian = test system: OVCAR-4 ovarian
SK-MEL-2 melanoma = test system: SK-MEL-2 melanoma
SK-OV-3 ovarian = test system: SK-OV-3 ovarian
SN12C renal = test system: SN12C renal
SNB-75 CNS = test system: SNB-75 CNS
SW-620 colon = test system: SW-620 colon

Row | SMILES | TGI (786-0 renal) [µM] | TGI (COLO 205 colon) [µM] | TGI (DU-145 prostate) [µM] | TGI (HL-60(TB) leukemia) [µM] | TGI (IGROV1 ovarian) [µM] | TGI (MALME-3M melanoma) [µM] | TGI (MCF7 breast) [µM] | TGI (MDA-MB-435) [µM] | TGI (NCI-H23 lung) [µM] | TGI (NCI-H522 lung) [µM] | TGI (OVCAR-3 ovarian) [µM] | TGI (OVCAR-4 ovarian) [µM] | TGI (SK-MEL-2 melanoma) [µM] | TGI (SK-OV-3 ovarian) [µM] | TGI (SN12C renal) [µM] | TGI (SNB-75 CNS) [µM] | TGI (SW-620 colon) [µM]
1 | COc1cc(OC)cc(OCc2nc3cc(C(F)(F)F)ccc3nc2-c2ccccc2)c1 | > 100 | > 100 | > 100 | > 100 | > 100 | > 100 | > 100 | > 100 | > 100 | > 100 | > 100 | > 100 | > 100 | > 100 | > 100 | > 100 | > 100
2 | COC(=O)[C@]12CC3C=CC1N(C3)C(CBr)c1c2n(S(=O)(=O)c2ccccc2)c2ccccc12 (some centres not stated) | > 100 | > 100 | > 100 | > 100 | > 100 | > 100 | > 100 | > 100 | > 100 | > 100 | > 100 | > 100 | > 100 | > 100 | > 100 | 86.2 | > 100
3 | O=C(O)c1ccccc1C(=O)NCC1S(=O)(=O)OCCOS1(=O)=O | > 100 | > 100 | > 100 | > 100 | > 100 | > 100 | > 100 | > 100 | > 100 | > 100 | > 100 | > 100 | > 100 | > 100 | > 100 | > 100 | > 100
4 | O=c1c2cc(-c3ccccc3)cnc2sn1-c1ccc(Br)cc1 | > 100 | > 100 | > 100 | > 100 | > 100 | > 100 | > 100 | > 100 | > 100 | > 100 | > 100 | > 100 | > 100 | > 100 | > 100 | > 100 | > 100
5 | Cc1ccc(O)c(C(c2cccc(C(c3cc(C)ccc3O)c3cc(C)ccc3O)c2)c2cc(C)ccc2O)c1 | 3.18 | 2.47 | 2.84 | 5.31 | 3.02 | 3.77 | 3.18 | 3.26 | 3.18 | 3.03 | 4.35 | 3.73 | 4.61 | 3.42 | 3.4 | 3.54 | 3.2
6 | C=CCN(c1cc(OC)c(NC(C)=O)cc1[N+](=O)[O-])S(C)(=O)=O | > 100 | > 100 | > 100 | > 100 | > 100 | 68.5 | > 100 | > 100 | > 100 | 12.5 | > 100 | > 100 | > 100 | > 100 | > 100 | > 100 | > 100
7 | Cc1ccc(CC2(C(=O)O)Cc3ccc(C)cc3C2)cc1 (configuration not stated) | > 100 | > 100 | > 100 | > 100 | > 100 | > 100 | > 100 | > 100 | > 100 | > 100 | > 100 | > 100 | > 100 | > 100 | > 100 | > 100 | > 100
8 | COc1ccc(C(=O)C#Cc2cn(C3CC(O)C(CO)O3)c(=O)[nH]c2=O)cc1 (configuration not stated) | > 100 | > 100 | > 100 | > 10 | > 100 | 22.7 | > 100 | > 100 | > 100 | 24.5 | 34.9 | > 100 | > 100 | > 100 | > 100 | > 100 | > 100
9 | Cc1cc(NC2=CC(=O)C(=O)c3ccccc32)no1 | 30.4 | 31.6 | 30.1 | > 29.6 | 21.8 | 5.92 | 7.66 | 3.34 | 39.8 | 34.5 | 14.1 | 21.4 | 10.4 | 40.3 | 7.1 | 23 | 14.6
10 | C[C@H](C1CC(C)(O)C(C)(O)C(O)O1)[C@H]1CC[C@H]2[C@@H]3[C@@H]4O[C@@H]4[C@@]4(O)CC=CC(=O)[C@]4(C)[C@H]3CC[C@]12C (some centres not stated) | > 50 | > 50 | > 50 | > 50 | > 50 | 31.5 | > 50 | > 50 | > 50 | > 50 | > 50 | > 50 | > 50 | > 50 | > 50 | > 50 | > 50
11 | O=c1nc2n3c4c(cccc4nc-2c(=O)[nH]1)CCC3 | > 100 | > 100 | > 100 | > 100 | > 100 | 39.2 | > 100 | > 100 | > 100 | 71.4 | > 100 | > 100 | > 100 | > 100 | > 100 | > 100 | > 100

From PubChem BioAssay (NCI)
